Measurements as given in patent US8138158B2, “Compositions and methods for therapy for diseases characterized by defective chloride transport” (Children's Hospital & Research Center at Oakland, priority 1997, dated 2012).

What was measured:
[1] = test system: nasal potential difference; experiment: Nasal potential difference measurement in a human volunteer (Knowles protocol); type: in vivo; conditions: L-ascorbic acid 100 μM in luminal perfusate; amiloride, chloride-free solution
Method: In vivo, chloride secretion may be assessed using measurements of nasal potential differences in a mammal, such as a human or a mouse. […] The nasal potential difference is measured as the electrical potential measured on the nasal mucosa with respect to a skin electrode placed on a slightly scratched skin part (see Alton et al., Eur. Respir. J. 3:922-926, 1990) or with respect to a subcutaneous needle (see Knowles et al., Hum. Gene Therapy 6:445-455, 1995). Nasal potential difference is evaluated in the presence and absence of test compound, and those compounds that results in a statistically significant increase in nasal potential difference stimulate chloride transport.
The effect of quercetin on nasal potential difference (PD) measurement in a healthy human volunteer was measured as described by Knowles et al., Hum. Gene Therapy 6:445-455, 1995.
Nasal potential difference measurement was performed on a human volunteer according to a protocol by Knowles et al., Hum. Gene Therapy 6:445-455, 1995. Addition of L-ascorbic acid (100 μM) to the luminal perfusate in the nose (in the presence of amiloride (blocks Na currents) and in chloride-free solution) hyperpolarized nasal potential difference (PD) by 6.3 mV (FIG. 17). […] Stimulation was reversed by washing out drugs with NaCl Ringer solution.

CFTR Cl channels = target: T1, CFTR Cl channels (Homo sapiens, UniProt P13569); experiment: Outside-out single channel patch clamp on Calu-3 cells; type: cell-based
T1 construct: Calu-3 airway cells which express large amounts of native CFTR; endogenous in cells; host or cells: Calu-3 human airway epithelial cells
T1 sequence (P13569 whole entry): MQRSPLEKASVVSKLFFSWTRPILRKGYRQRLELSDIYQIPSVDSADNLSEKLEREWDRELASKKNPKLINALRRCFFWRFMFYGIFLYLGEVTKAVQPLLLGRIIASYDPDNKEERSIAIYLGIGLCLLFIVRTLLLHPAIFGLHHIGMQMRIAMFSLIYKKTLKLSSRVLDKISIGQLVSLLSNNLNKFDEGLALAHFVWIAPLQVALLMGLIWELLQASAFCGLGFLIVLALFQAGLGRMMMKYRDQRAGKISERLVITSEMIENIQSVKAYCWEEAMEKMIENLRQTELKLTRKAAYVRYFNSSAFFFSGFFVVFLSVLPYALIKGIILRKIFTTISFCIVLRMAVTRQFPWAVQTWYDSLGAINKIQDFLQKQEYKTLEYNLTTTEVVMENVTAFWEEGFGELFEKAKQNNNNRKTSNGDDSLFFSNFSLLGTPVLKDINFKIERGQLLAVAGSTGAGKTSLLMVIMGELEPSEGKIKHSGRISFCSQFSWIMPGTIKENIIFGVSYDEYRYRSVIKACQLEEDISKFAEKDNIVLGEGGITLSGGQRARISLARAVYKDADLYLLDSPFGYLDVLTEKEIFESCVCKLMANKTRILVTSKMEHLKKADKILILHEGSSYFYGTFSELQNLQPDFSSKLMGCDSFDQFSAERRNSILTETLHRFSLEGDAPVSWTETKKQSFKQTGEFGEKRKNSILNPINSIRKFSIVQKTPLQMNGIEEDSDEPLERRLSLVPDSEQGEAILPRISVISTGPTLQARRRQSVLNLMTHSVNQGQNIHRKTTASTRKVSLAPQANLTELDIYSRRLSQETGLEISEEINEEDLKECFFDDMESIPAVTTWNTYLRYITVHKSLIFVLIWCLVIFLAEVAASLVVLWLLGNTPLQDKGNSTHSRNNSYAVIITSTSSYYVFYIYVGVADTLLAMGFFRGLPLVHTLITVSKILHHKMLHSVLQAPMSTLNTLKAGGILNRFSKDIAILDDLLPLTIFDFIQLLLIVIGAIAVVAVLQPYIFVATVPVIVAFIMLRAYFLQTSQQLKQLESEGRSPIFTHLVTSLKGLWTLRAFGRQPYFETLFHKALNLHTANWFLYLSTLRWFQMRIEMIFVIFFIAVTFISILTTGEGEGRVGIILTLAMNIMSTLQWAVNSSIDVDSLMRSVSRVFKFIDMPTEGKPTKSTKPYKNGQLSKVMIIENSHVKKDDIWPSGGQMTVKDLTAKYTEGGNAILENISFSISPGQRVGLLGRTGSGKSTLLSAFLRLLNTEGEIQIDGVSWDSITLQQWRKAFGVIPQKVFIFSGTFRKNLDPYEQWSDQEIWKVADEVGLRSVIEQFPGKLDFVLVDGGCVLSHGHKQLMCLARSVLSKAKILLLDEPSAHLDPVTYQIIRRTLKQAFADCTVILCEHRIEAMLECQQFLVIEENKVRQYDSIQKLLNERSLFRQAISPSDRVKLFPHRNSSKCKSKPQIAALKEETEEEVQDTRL
Method: Patch clamp analysis. Single channel patch clamp studies were performed on Calu-3 cells at 37° C. The outside-out recording mode was established via the whole cell mode as described (Fischer, H. (2001) in Methods in Molecular Medicine, […]. & Walker, J. M. (Humana Press Inc, Totowa), pp. 49-66.). The bath solution contained (in mM) 145 NaCl, 1.7 CaCl2, 1 MgCl2, 10 Hepes, 10 glucose, pH=7.4. The pipette solution contained (in mM): 15 N-methyl-D-glucamine (NMG) Cl, 10 EGTA, 1 MgCl2, 10 Hepes, 10 glucose, 120 NMG-gluconate, 5 MgATP, 0.1 LiGTP, pH=7.4. […] The regulatory role of vitamin C on Cl ion channel activity was studied in Calu-3 airway cells which express large amounts of native CFTR as their major Cl conductance ([…]., Widdicombe, J. H. & Wine, J. J. (1994) Am. J. Physiol. 266, […]-[…]). […] Details of the single channel recording are illustrated in FIG. 20C. […] At negative potentials no channel openings were resolved indicating Cl-over-gluconate selectivity. Cyclic AMP is the major intracellular messenger for the activation of CFTR. We tested the possibility that L-ascorbic acid increased intracellular cAMP levels [cAMP], by either turning on cAMP production or preventing cAMP degradation. FIG. 20E compares whole cell cAMP levels of Calu-3 cells challenged with either increasing concentrations of L-ascorbic acid or the cAMP agonist forskolin.

Calu-3 airway epithelia = experiment: Short-circuit current (transepithelial Cl secretion) across Calu-3 airway epithelia, Examples 12-13; type: cell-based, human
Method: Short-circuit current measurement. Calu-3 or CF15 cells were grown as monolayers, mounted in Ussing chambers and short-circuit current (ISC) was recorded as described (Illek, B. & Fischer, H. (1998) Am. J. Physiol. 275, L902-L910). At 20-50 second intervals, transepithelial voltage was clamped from zero to 2 mV and the transepithelial resistance (Rte) was calculated. A serosa-to-mucosa-directed Cl gradient was applied. Serosal Ussing chamber solution contained (in mM): 120 NaCl, 20 NaHCO3, 5 KHCO3, 1.2 NaH2PO4, 5.6 glucose, 2.5 CaCl2, 1.2 MgCl2. In mucosal Ussing chamber solutions, all Cl salts were exchanged for gluconate salts.
Vitamin C activation of CFTR-mediated Cl secretion was studied in Calu-3 cells grown as epithelial monolayers (FIG. 21A). Exposure of the apical membrane to maximal concentrations of L-ascorbic acid stimulated transepithelial Cl currents (ISC) in a sustained fashion to 96±11 μA/cm^2 (n=22). Subsequent addition of forskolin further increased ISC to 141±33 μA/cm^2 (n=9, p=0.029). On average, Cl secretion was stimulated by ascorbate to 68% of the currents elicited by forskolin. The Cl channel blocker diphenylcarboxylate (DPC, 4 mM) was added as a measure for the transcellular Cl current decreasing ISC to 30±4 μA/cm^2. When Cl secretion was first stimulated with forskolin (to 106±23 μA/cm^2, n=4) ascorbate had no significant effect on Ise (at 100 μM: ΔICl=−1.5±3.5 μA/cm^2, n=4, not different from zero, one-sample t test). Half-maximal stimulatory constant averaged 36.5±2.9 μm as determined from transepithelial dose-response experiments.
Furthermore, the response to ascorbate in Na-containing medium was blunted in the presence of phloretin, a known inhibitor of the sodium-dependent vitamin C transporters SVCT1 and SVCT2 (Tsukaguchi, H., Tokui, T., Mackenzie, B., Berger, U. V., Chen, X. Z., Wang, Y., Brubaker, R. F. & Hediger, M. A. (1999) Nature 399, 70-75). […] Molecular expression of SVCT1 and SVCT2 transcripts in Calu-3 cells was verified using RT-PCR and DNA sequencing analysis. For comparison, human ciliated tracheal epithelial cultures (hTE) and a nasal cystic fibrosis airway cell line (CF15) were included. […] The recombinantly expressed SVCT2-EGFP fusion protein was targeted exclusively to the apical membrane pole of CF15 epithelia.

## O=C1O[C@H](C(O)CO)C(O)=C1O (stereo partly drawn) [L-ascorbic acid, L-xyloascorbic acid]
[1]
  hyperpolarized nasal potential difference (PD) by: 6.3 mV
CFTR Cl channels; 100 μM L-ascorbic acid, n=4
  average single channel open probability (Po) increased from zero to: 0.21±0.08
CFTR Cl channels; applied to extracellular surface of the patched membrane
  CFTR Cl channel openings: induced openings of CFTR Cl channels
CFTR Cl channels; n=4
  slope conductance of ascorbate-stimulated chloride conductance: 8.9±0.2 pS
Calu-3 airway epithelia; FIG. 21B
  concentrations causing maximal stimulation: > 300 µM
Calu-3 airway epithelia; Homo sapiens, Calu-3, transepithelial dose-response experiments, read-out: Half-maximal stimulatory constant
  EC50: 36.5 ± 2.9 µM
Calu-3 airway epithelia; apical exposure to maximal concentrations of L-ascorbic acid, n=22
  transepithelial Cl currents (ISC) stimulated to: 96±11 μA/cm^2
Calu-3 airway epithelia; ascorbate at 100 μM after forskolin, n=4, not different from zero
  ΔICl after forskolin prestimulation: −1.5±3.5 μA/cm^2
Calu-3 airway epithelia; no Na on the mucosal side
  ascorbate-stimulated Cl secretion in absence of extracellular Na: significantly reduced
Calu-3 airway epithelia; on average
  Cl secretion stimulated, % of the currents elicited by forskolin: 68%
